The values that follow come from US12083124B2 (Incyte Corporation, priority 2019, dated 2024).

Like-named read-outs stand apart in the source and are kept apart here. Where only a bound is given, the exact number is not on record here.

In assay [1] the target is wild-type un-phosphorylated FGFR3 (Homo sapiens, UniProt P22607). The assay is described as follows: FGFR Enzymatic Assay (FRET peptide phosphorylation), FGFR3.
Assay [2] addresses wild-type un-phosphorylated FGFR1 (Homo sapiens, UniProt P11362). Put plainly: FGFR Enzymatic Assay (FRET peptide phosphorylation), FGFR1. As to conditions: pre-incubated for 4 hours.
Assay [3] deals with wild-type un-phosphorylated FGFR4 (Homo sapiens, UniProt P22455). Put plainly: FGFR Enzymatic Assay (FRET peptide phosphorylation), FGFR4.
Assay [4] deals with wild-type un-phosphorylated FGFR2 (Homo sapiens, UniProt P21802). The assay is described as follows: FGFR Enzymatic Assay (FRET peptide phosphorylation), FGFR2.
[5] abbreviates: FGFR1, wild-type un-phosphorylated FGFR1.
Where [6] appears, read: read-out: FGFR1, wild-type un-phosphorylated FGFR1.
Setting [7] is: read-out: FGFR4, wild-type un-phosphorylated FGFR4, pre-incubated for 4 hours.

wild-type un-phosphorylated FGFR2, sequence (P21802 22-821): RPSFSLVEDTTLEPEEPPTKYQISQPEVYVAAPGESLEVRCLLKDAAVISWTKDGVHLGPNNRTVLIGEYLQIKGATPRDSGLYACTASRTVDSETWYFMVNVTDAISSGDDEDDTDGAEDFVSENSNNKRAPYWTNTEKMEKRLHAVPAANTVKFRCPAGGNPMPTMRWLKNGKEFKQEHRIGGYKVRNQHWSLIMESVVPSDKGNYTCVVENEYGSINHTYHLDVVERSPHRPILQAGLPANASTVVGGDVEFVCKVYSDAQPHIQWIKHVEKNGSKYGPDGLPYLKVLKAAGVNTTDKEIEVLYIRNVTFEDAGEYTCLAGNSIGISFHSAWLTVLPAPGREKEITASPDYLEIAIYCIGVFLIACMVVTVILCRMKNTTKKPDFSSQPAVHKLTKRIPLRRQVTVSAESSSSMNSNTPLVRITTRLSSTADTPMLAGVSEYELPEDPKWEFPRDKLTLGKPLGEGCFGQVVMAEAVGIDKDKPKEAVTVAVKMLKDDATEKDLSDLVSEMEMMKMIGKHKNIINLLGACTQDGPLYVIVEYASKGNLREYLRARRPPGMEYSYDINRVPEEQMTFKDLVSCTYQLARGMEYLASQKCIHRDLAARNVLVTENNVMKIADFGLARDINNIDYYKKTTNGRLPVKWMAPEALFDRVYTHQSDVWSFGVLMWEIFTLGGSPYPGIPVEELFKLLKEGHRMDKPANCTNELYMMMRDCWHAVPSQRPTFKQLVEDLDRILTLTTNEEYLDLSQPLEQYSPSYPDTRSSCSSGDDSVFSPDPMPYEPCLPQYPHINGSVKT
wild-type un-phosphorylated FGFR3, sequence (P22607 23-806): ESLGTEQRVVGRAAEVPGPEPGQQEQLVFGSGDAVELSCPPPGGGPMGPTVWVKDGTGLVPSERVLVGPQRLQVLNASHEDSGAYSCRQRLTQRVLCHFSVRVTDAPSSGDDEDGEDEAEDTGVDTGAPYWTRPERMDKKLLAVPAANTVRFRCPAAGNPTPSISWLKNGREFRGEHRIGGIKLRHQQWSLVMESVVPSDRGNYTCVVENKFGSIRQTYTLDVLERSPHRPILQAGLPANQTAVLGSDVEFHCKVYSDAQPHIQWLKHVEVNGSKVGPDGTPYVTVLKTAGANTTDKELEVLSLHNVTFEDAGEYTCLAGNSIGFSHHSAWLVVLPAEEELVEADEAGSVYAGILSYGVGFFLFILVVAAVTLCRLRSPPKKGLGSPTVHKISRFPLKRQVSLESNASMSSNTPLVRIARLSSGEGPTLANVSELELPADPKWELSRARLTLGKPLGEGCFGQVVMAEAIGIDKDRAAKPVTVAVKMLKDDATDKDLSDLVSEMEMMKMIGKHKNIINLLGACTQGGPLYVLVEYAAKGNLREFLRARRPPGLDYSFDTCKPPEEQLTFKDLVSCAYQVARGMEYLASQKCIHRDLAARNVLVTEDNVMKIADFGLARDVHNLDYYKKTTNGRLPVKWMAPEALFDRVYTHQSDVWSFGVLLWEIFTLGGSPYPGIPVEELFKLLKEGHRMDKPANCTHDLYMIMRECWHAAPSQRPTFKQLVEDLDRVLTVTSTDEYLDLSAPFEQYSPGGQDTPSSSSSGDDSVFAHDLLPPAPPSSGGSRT
wild-type un-phosphorylated FGFR1, sequence (P11362 22-822): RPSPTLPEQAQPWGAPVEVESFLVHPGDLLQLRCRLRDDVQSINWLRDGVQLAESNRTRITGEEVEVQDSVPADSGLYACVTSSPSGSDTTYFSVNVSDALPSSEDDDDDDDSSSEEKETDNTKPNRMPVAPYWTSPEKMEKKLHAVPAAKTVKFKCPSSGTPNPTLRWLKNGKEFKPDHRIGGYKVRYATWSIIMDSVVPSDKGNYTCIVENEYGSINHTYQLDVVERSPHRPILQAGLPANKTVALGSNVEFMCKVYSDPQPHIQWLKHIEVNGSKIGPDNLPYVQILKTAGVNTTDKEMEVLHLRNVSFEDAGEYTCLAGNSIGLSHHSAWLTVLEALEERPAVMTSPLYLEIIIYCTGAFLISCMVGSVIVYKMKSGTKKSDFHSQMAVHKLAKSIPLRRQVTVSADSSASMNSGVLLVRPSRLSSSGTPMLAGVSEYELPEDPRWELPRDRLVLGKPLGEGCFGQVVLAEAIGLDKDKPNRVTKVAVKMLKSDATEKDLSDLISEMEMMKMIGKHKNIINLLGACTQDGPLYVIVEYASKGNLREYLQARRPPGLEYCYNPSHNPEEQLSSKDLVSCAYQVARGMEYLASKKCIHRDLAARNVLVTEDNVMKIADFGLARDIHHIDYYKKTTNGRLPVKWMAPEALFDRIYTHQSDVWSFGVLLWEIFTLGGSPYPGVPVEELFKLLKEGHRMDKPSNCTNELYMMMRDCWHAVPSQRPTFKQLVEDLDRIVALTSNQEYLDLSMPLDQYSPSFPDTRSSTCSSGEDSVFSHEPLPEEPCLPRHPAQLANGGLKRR
wild-type un-phosphorylated FGFR4, sequence (P22455 22-802): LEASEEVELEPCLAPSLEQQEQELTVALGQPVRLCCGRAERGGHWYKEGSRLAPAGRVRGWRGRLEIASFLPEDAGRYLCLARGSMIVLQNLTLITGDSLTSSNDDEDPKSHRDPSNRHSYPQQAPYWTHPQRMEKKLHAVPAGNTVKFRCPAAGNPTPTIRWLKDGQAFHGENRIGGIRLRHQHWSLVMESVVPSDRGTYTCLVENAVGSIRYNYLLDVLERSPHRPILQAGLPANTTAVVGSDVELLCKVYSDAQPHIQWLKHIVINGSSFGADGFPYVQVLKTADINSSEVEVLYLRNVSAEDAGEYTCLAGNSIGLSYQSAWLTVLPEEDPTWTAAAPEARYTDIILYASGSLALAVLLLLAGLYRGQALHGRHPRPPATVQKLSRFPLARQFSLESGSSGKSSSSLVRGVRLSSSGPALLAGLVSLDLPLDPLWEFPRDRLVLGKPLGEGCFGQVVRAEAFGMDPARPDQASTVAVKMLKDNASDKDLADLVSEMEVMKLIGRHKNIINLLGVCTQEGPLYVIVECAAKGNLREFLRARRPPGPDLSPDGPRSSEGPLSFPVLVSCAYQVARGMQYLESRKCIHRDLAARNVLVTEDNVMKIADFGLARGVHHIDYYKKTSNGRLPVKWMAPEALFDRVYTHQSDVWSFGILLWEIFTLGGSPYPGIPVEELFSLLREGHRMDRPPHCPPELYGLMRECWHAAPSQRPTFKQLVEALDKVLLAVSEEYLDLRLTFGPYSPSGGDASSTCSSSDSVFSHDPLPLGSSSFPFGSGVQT

In the case of `COc1cc2[nH]nc(-c3ccc(N4CCOCC4)nc3)c2nc1-c1cccc(CC#N)c1C` [Example 56, 2-(3-(6-Methoxy-3-(6-morpholinopyridin-3-yl)-1H-pyrazolo[4,3-b]pyridin-5-yl)-2-methylphenyl)acetonitrile], the IC50 in assay [1] was below 6 nM; in assay [2] (setting [5]), above 100 nM; in assay [3], above 100 nM; in assay [4] (read-out: FGFR2, wild-type un-phosphorylated FGFR2, pre-incubated for 4 hours) it was 6 to 40 nM.
On to `COc1cc2[nH]nc(-c3ccc(C4CN(C(=O)C5CCCO5)C4)nc3)c2nc1-c1cccc2c1CCC2` (centres unmarked) [Example 172, (3-(5-(5-(2,3-Dihydro-1H-inden-4-yl)-6-methoxy-1H-pyrazolo[4,3-b]pyridin-3-yl)pyridin-2-yl)azetidin-1-yl)(tetrahydrofuran-2-yl)methanone], for which the IC50 in assay [1] is below 6 nM; in assay [2] (setting [5]), 40 to 100 nM; in assay [3], 40 to 100 nM; in assay [4], below 6 nM.
With `COc1cc2[nH]nc(-c3cnn(C4CN(C(=O)[C@H](C)O)C4)c3)c2nc1-c1cccc2c1CCC2` [Example 124, (S)-1-(3-(4-(5-(2,3-Dihydro-1H-inden-4-yl)-6-methoxy-1H-pyrazolo[4,3-b]pyridin-3-yl)-1H-pyrazol-1-yl)azetidin-1-yl)-2-hydroxypropan-1-one], the IC50 in assay [1] is below 6 nM; in assay [2] (setting [6]), 6 to 40 nM; in assay [3] it was 40 to 100 nM; in assay [4] it was below 6 nM.
As to `COc1cc2[nH]nc(-c3ccc(C4CN(C(=O)[C@@H]5CCCCN5C)C4)nc3)c2nc1-c1cccc2c1CCC2` [Example 173, (S)-(3-(5-(5-(2,3-Dihydro-1H-inden-4-yl)-6-methoxy-1H-pyrazolo[4,3-b]pyridin-3-yl)pyridin-2-yl)azetidin-1-yl)(1-methylpiperidin-2-yl)methanone], the IC50 in assay [1] is below 6 nM; in assay [2] (setting [6]), 6 to 40 nM; in assay [3] (setting [7]), 6 to 40 nM; in assay [4], below 6 nM.
As for `COc1cc2[nH]nc(-c3cnn([C@H]4CCN(C(=O)[C@H](C)O)C4)c3)c2nc1-c1cccc2c1CCC2` [Example 133, (S)-1-((S)-3-(4-(5-(2,3-Dihydro-1H-inden-4-yl)-6-methoxy-1H-pyrazolo[4,3-b]pyridin-3-yl)-1H-pyrazol-1-yl)pyrrolidin-1-yl)-2-hydroxypropan-1-one], the IC50 is below 6 nM in assay [1], 6 to 40 nM in assay [2] (setting [6]), 40 to 100 nM in assay [3] and below 6 nM in assay [4].
On to `COc1cc2[nH]nc(-c3cnn([C@H]4CCN(C(=O)[C@H]5C[C@@H](O)C5)C4)c3)c2nc1-c1cccc2c1CCC2` [Example 145, ((S)-3-(4-(5-(2,3-Dihydro-1H-inden-4-yl)-6-methoxy-1H-pyrazolo[4,3-b]pyridin-3-yl)-1H-pyrazol-1-yl)pyrrolidin-1-yl)((cis)-3-hydroxycyclobutyl)methanone], for which the IC50 in assay [1] is below 6 nM; in assay [2] (setting [6]) it was 6 to 40 nM; in assay [3] (setting [7]), 6 to 40 nM; in assay [4], below 6 nM.
For the molecule `COc1cc2[nH]nc(-c3cnn(C4CN(C(=O)N(C)C)C4)c3)c2nc1-c1cccc2c1CCC2` [Example 24, 3-(4-(5-(2,3-Dihydro-1H-inden-4-yl)-6-methoxy-1H-pyrazolo[4,3-b]pyridin-3-yl)-1H-pyrazol-1-yl)-N,N-dimethylazetidine-1-carboxamide], the IC50 in assay [1] was below 6 nM; in assay [2] (setting [6]), 6 to 40 nM; in assay [3] (setting [7]), 6 to 40 nM; in assay [4] it was below 6 nM.
On to `COc1cc2[nH]nc(-c3cnn(C4CN(S(C)(=O)=O)C4)c3)c2nc1-c1cccc2c1CCC2` [Example 23, 5-(2,3-Dihydro-1H-inden-4-yl)-6-methoxy-3-(1-(1-(methylsulfonyl)azetidin-3-yl)-1H-pyrazol-4-yl)-1H-pyrazolo[4,3-b]pyridine], for which the IC50 in assay [1] was below 6 nM; in assay [2] (setting [5]), above 100 nM; in assay [3], above 100 nM; in assay [4] it was below 6 nM.
